pIC50: −log10 of the molar value.
Biological target: MetAP-2 (Homo sapiens, UniProt P50579)
Test: MetAP-2 activity measurement (coupled enzymatic reactions, Met-Arg-Ser substrate, dianisidine detection at 450 nm)
Assay type: biochemical
Settings: Inhibition of MetAP-2; read-out: IC50 enzyme
In short: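 Rate read from the linear part of the 450 nm absorbance trace. Dianisidine oxidation by peroxidase reports H2O2 made when amino acid oxidase acts on methionine cleaved from MAS tripeptide, one mol dye per mol Met; extinction coefficient gives molar activity.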

MetAP-2, sequence (P50579 whole entry, species assumed): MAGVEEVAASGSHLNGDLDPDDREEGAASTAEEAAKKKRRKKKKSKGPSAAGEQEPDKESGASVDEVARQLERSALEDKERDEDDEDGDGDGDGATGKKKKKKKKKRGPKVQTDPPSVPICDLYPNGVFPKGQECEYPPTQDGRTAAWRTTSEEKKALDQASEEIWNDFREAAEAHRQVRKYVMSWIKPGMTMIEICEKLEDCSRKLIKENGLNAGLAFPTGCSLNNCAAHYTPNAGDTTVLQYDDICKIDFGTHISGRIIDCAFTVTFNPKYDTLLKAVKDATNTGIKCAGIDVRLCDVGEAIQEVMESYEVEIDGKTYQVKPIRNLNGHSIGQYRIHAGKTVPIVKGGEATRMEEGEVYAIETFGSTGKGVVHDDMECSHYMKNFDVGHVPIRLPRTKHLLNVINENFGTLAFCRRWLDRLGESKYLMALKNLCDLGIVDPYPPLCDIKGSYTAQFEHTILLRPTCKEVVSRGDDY

**Q.** With `O=C1CCc2cc(N3CCC(O)(C(=O)NCCc4cc(F)cc(F)c4)C3=O)ccc2N1` (stereo not drawn) [A199, N-[2-(3,5-Difluorophenyl)ethyl]-3-hydroxy-2-oxo-1-(2-oxo-1,2,3,4-tetrahydroquinolin-6-yl)-pyrrolidine-3-carboxamide] as the compound, how does the pIC50 read?
**A.** 6.00 to 8.00

**Q.** `NC(=O)c1cccc(N2CCC(O)(C(=O)NCCc3cc(F)cc(F)c3)C2=O)c1` (stereo not drawn) [A201, N-[2-(3,5-Difluorophenyl)ethyl]-1-(3-carbamoylphenyl)-3-hydroxy-2-oxopyrrolidine-3-carboxamide] was tested. Which pIC50 did it give?
**A.** 6.00 to 8.00

**Q.** With `CCOC(=O)C1CCCC(N2CCC(O)(C(=O)NCc3cc(F)cc(Cl)c3)C2=O)C1` (stereo not drawn) [A202, Ethyl 3-[3-(3-chloro-5-fluorobenzylcarbamoyl)-3-hydroxy-2-oxopyrrolidin-1-yl]-cyclohexanecarboxylate] as the compound, how does the pIC50 read?
**A.** 5.00 to 6.00

**Q.** With `O=C(O)CN1CCC(O)(C(=O)NCc2cc(F)cc(Cl)c2)C1=O` (stereo not drawn) [A203, [3-(3-Chloro-5-fluorobenzylcarbamoyl)-3-hydroxy-2-oxopyrrolidin-1-yl]-acetic acid] as the compound, how does the pIC50 read?
**A.** < 5.00

**Q.** With `NC(=O)c1cc(N2CCC(O)(C(=O)NCc3cc(F)cc(Cl)c3)C2=O)cc(C(F)(F)F)c1` (stereo not drawn) [A204, N-(3-Chloro-5-fluorobenzyl)-1-(3-carbamoyl-5-trifluoromethyl-phenyl)-3-hydroxy-2-oxo-pyrrolidine-3-carboxamide] as the compound, how does the pIC50 read?
**A.** 5.00 to 6.00

**Q.** With `CCOC(=O)c1cc2cc(N3CCC(O)(C(=O)NCc4cc(F)cc(Cl)c4)C3=O)ccc2[nH]1` (stereo not drawn) [A205, Ethyl 5-[3-(3-chloro-5-fluorobenzylcarbamoyl)-3-hydroxy-2-oxopyrrolidin-1-yl]-1H-indol-2-carboxylate] as the compound, how does the pIC50 read?
**A.** 6.00 to 8.00

**Q.** How did the pIC50 turn out when `O=C(NCc1cccc(F)c1Cl)C1(O)CCN(c2ccc3[nH]ccc3c2)C1=O` (stereo not drawn) [A206, N-(2-Chloro-3-fluorobenzyl)-3-hydroxy-1-(1H-indol-5-yl)-2-oxo-pyrrolidine-3-carboxamide] was run?
**A.** 6.00 to 8.00

**Q.** With `O=C(NCCc1cc(F)cc(F)c1)C1(O)CCN(c2ccc3[nH]ccc3c2)C1=O` (stereo not drawn) [A207, N-[2-(3,5-Difluorophenyl)ethyl]-3-hydroxy-1-(1H-indol-5-yl)-2-oxopyrrolidine-3-carboxamide] as the compound, how does the pIC50 read?
**A.** 6.00 to 8.00

**Q.** With `CNC(=O)CN1CCC(O)(C(=O)NCc2cc(F)cc(Cl)c2)C1=O` (stereo not drawn) [A208, N-(3-Chloro-5-fluorobenzyl)-3-hydroxy-1-methylcarbamoyl-methyl-2-oxopyrrolidine-3-carboxamide] as the compound, how does the pIC50 read?
**A.** 5.00 to 6.00

**Q.** How did the pIC50 turn out when `O=C(NCCc1ccccc1F)C1(O)CCN(c2ccc3[nH]ccc3c2)C1=O` (stereo not drawn) [A210, N-[2-(2-Fluorophenyl)ethyl]-3-hydroxy-1-(1H-indol-5-yl)-2-oxo-pyrrolidine-3-carboxamide] was run?
**A.** 6.00 to 8.00

**Q.** With `NC(=O)c1cc2cc(N3CCC(O)(C(=O)NCc4cc(F)cc(Cl)c4)C3=O)ccc2[nH]1` (stereo not drawn) [A211, 5-[3-(3-Chloro-5-fluorobenzylcarbamoyl)-3-hydroxy-2-oxopyrrolidin-1-yl]-1H-indole-2-carboxamide] as the compound, how does the pIC50 read?
**A.** 6.00 to 8.00

**Q.** `O=C(NCCc1cccc(F)c1)C1(O)CCN(c2ccc3[nH]ccc3c2)C1=O` (stereo not drawn) [A212, N-[2-(3-Fluorophenyl)ethyl]-3-hydroxy-1-(1H-indol-5-yl)-2-oxo-pyrrolidine-3-carboxamide] was tested. Which pIC50 did it give?
**A.** 6.00 to 8.00

**Q.** With `CC(C)(C)OC(=O)N1CC(CN2CCC(O)(C(=O)NCc3cc(F)cc(Cl)c3)C2=O)C1` (stereo not drawn) [A213, tert-Butyl 3-[3-(3-chloro-5-fluorobenzylcarbamoyl)-3-hydroxy-2-oxopyrrolidin-1-yl-methyl]-azetidine-1-carboxylate] as the compound, how does the pIC50 read?
**A.** 5.00 to 6.00

**Q.** `O=C1CCc2cc(N3CCC(O)(C(=O)NCc4cc(F)cc(Cl)c4)C3=O)cnc2N1` (stereo not drawn) [A214, N-(3-Chloro-5-fluorobenzyl)-3-hydroxy-2-oxo-1-(7-oxo-5,6,7,8-tetrahydro-1,8-naphthyridin-3-yl)pyrrolidine-3-carboxamide] was tested. Which pIC50 did it give?
**A.** 6.00 to 8.00

**Q.** `NC(=O)c1cncc(N2CCC(O)(C(=O)NCc3cc(F)cc(Cl)c3)C2=O)c1` (stereo not drawn) [A216, 5-[3-(3-Chloro-5-fluorobenzylcarbamoyl)-3-hydroxy-2-oxopyrrolidin-1-yl]-nicotinamide] was tested. Which pIC50 did it give?
**A.** 6.00 to 8.00

**Q.** `N#Cc1cc2cc(N3CCC(O)(C(=O)NCc4cc(F)cc(Cl)c4)C3=O)ccc2[nH]1` (stereo not drawn) [A217, N-(3-Chloro-5-fluorobenzyl)-1-(2-cyano-1H-indol-5-yl)-3-hydroxy-2-oxopyrrolidine-3-carboxamide] was tested. Which pIC50 did it give?
**A.** 6.00 to 8.00

**Q.** How did the pIC50 turn out when `O=C(NCc1cc(F)cc(Cl)c1)C1(O)CCN(CC2CNC2)C1=O` (stereo not drawn) [A218, N-(3-Chloro-5-fluorobenzyl)-1-azetidin-3-ylmethyl-3-hydroxy-2-oxopyrrolidine-3-carboxamide] was run?
**A.** < 5.00

**Q.** `O=C(NCc1cc(F)cc(Cl)c1)C1(O)CCN(CCc2c[nH]c3ccc(F)cc23)C1=O` (stereo not drawn) [A219, N-(3-Chloro-5-fluorobenzyl)-1-[2-(5-fluoro-1H-indol-3-yl)ethyl]-3-hydroxy-2-oxopyrrolidine-3-carboxamide] was tested. Which pIC50 did it give?
**A.** 6.00 to 8.00

**Q.** `O=C(NCc1cc(F)cc(Cl)c1)C1(O)CCN(CC2CCOCC2)C1=O` (stereo not drawn) [A220, N-(3-Chloro-5-fluorobenzyl)-3-hydroxy-2-oxo-1-(tetrahydro-pyran-4-ylmethyl)pyrrolidine-3-carboxamide] was tested. Which pIC50 did it give?
**A.** 5.00 to 6.00

**Q.** With `O=C1CCc2cc(N3CC[C@](O)(C(=O)NCCc4cc(F)cc(F)c4)C3=O)ccc2N1` [A221, N-[2-(3,5-Difluorophenyl)ethyl]-(S)-3-hydroxy-2-oxo-1-(2-oxo-1,2,3,4-tetrahydroquinolin-6-yl)-pyrrolidine-3-carboxamide] as the compound, how does the pIC50 read?
**A.** 6.00 to 8.00

**Q.** With `N#Cc1c[nH]c2ccc(N3CC[C@](O)(C(=O)NCc4cc(F)cc(Cl)c4)C3=O)cc12` [A222, N-(3-Chloro-5-fluorobenzyl)-(S)-1-(3-cyano-1H-indol-5-yl)-3-hydroxy-2-oxopyrrolidine-3-carboxamide] as the compound, how does the pIC50 read?
**A.** 6.00 to 8.00

**Q.** With `O=C1CCc2cc(N3CC[C@@](O)(C(=O)NCCc4cc(F)cc(F)c4)C3=O)ccc2N1` [A223, N-[2-(3,5-Difluorophenyl)ethyl]-(R)-3-hydroxy-2-oxo-1-(2-oxo-1,2,3,4-tetrahydroquinolin-6-yl)-pyrrolidine-3-carboxamide] as the compound, how does the pIC50 read?
**A.** < 5.00

**Q.** How did the pIC50 turn out when `N#Cc1c[nH]c2ccc(N3CC[C@@](O)(C(=O)NCc4cc(F)cc(Cl)c4)C3=O)cc12` [A224, N-(3-Chloro-5-fluorobenzyl)-(R)-1-(3-cyano-1H-indol-5-yl)-3-hydroxy-2-oxopyrrolidine-3-carboxamide] was run?
**A.** 5.00 to 6.00

**Q.** With `O=C(NCc1cc(F)cc(Cl)c1)C1(O)CCN(C[C@H]2CCCO2)C1=O` (stereo partly drawn) [A225, N-(3-Chloro-5-fluorobenzyl)-3-hydroxy-2-oxo-1-[(R)-1-(tetrahydrofuran-2-yl)methyl]-pyrrolidine-3-carboxamide] as the compound, how does the pIC50 read?
**A.** 5.00 to 6.00

**Q.** With `O=C(NCc1cc(F)cc(Cl)c1)C1(O)CCN(C[C@H]2CC[C@@H](C(=O)O)CC2)C1=O` (stereo partly drawn) [A226, 4-[3-(3-Chloro-5-fluorobenzyl-carbamoyl)-3-hydroxy-2-oxo-pyrrolidin-1-ylmethyl]cyclo-hexanecarboxylic acid] as the compound, how does the pIC50 read?
**A.** 5.00 to 6.00

**Q.** `O=C(NCc1cc(F)cc(Cl)c1)C1(O)CCN(C[C@H]2CC[C@H](C(=O)O)CC2)C1=O` (stereo partly drawn) [A227, 4-[3-(3-Chloro-5-fluorobenzyl-carbamoyl)-3-hydroxy-2-oxo-pyrrolidin-1-ylmethyl]cyclo-hexanecarboxylic acid] was tested. Which pIC50 did it give?
**A.** 5.00 to 6.00

**Q.** With `CC(C)(C)OC(=O)N1C[C@@H]2[C@H](C1)[C@H]2N1CCC(O)(C(=O)NCc2cc(F)cc(Cl)c2)C1=O` (stereo partly drawn) [A228, tert-Butyl (1S,5R,6S)-6-[3-(3-chloro-5-fluorobenzyl-carbamoyl)-3-hydroxy-2-oxo-pyrrolidin-1-yl]-3-azabicyclo-[3.1.0]hexane-3-carboxylate] as the compound, how does the pIC50 read?
**A.** 5.00 to 6.00

**Q.** `O=C(NCc1cc(F)cc(Cl)c1)C1(O)CCN([C@H]2[C@@H]3CNC[C@@H]32)C1=O` (stereo partly drawn) [A229, N-(3-Chloro-5-fluorobenzyl)-1-(1S,5R,6S)-3-azabicyclo-[3.1.0]hex-6-yl-3-hydroxy-2-oxo-pyrrolidine-3-carboxamide] was tested. Which pIC50 did it give?
**A.** < 5.00

**Q.** With `CCS(=O)(=O)N1C[C@@H]2[C@H](C1)[C@H]2N1CCC(O)(C(=O)NCc2cc(F)cc(Cl)c2)C1=O` (stereo partly drawn) [A230, N-(3-Chloro-5-fluorobenzyl)-1-((1S,5R,6S)-3-ethanesulfonyl-3-azabicyclo[3.1.0]hex-6-yl)-3-hydroxy-2-oxopyrrolidine-3-carboxamide] as the compound, how does the pIC50 read?
**A.** 5.00 to 6.00

**Q.** How did the pIC50 turn out when `CC(=O)N1C[C@@H]2[C@H](C1)[C@H]2N1CCC(O)(C(=O)NCc2cc(F)cc(Cl)c2)C1=O` (stereo partly drawn) [A231, N-(3-Chloro-5-fluorobenzyl)-1-((1S,5R,6S)-3-acetyl-3-aza-bicyclo[3.1.0]hex-6-yl)-3-hydroxy-2-oxopyrrolidine-3-carboxamide] was run?
**A.** 5.00 to 6.00

**Q.** With `Cn1c(CN2CCC(O)(C(=O)NCc3cc(F)cc(Cl)c3)C2=O)nc2ccccc21` (stereo not drawn) [A232, N-(3-Chloro-5-fluorobenzyl)-3-hydroxy-1-(1-methyl-1H-benzimidazol-2-ylmethyl)-2-oxo-pyrrolidine-3-carboxamide] as the compound, how does the pIC50 read?
**A.** 5.00 to 6.00

**Q.** How did the pIC50 turn out when `O=C(NCc1cc(F)cc(Cl)c1)C1(O)CCN([C@H]2CCNC2)C1=O` (stereo partly drawn) [A233, N-(3-Chloro-5-fluorobenzyl)-(S)-3-hydroxy-2-oxo-[1,3′]bipyrrolidinyl-3-carboxamide] was run?
**A.** < 5.00

**Q.** How did the pIC50 turn out when `O=C1CCc2cc(N3CC[C@](O)(C(=O)NCc4cc(F)c(F)cc4Cl)C3=O)ccc2N1` [A234, N-(2-Chloro-4,5-difluorobenzyl)-(S)-3-hydroxy-2-oxo-1-(2-oxo-1,2,3,4-tetrahydroquinolin-6-yl)-pyrrolidine-3-carboxamide] was run?
**A.** 6.00 to 8.00

**Q.** With `O=C1CCc2cc(N3CC[C@](O)(C(=O)NCc4cc(Cl)c(F)cc4F)C3=O)ccc2N1` [A235, N-(5-Chloro-2,4-difluorobenzyl)-(S)-3-hydroxy-2-oxo-1-(2-oxo-1,2,3,4-tetrahydroquinolin-6-yl)-pyrrolidine-3-carboxamide] as the compound, how does the pIC50 read?
**A.** 6.00 to 8.00

**Q.** How did the pIC50 turn out when `O=C1CCc2cc(N3CC[C@](O)(C(=O)NCc4c(F)cc(F)cc4F)C3=O)ccc2N1` [A236, N-(2,4,6-Trifluorobenzyl)-(S)-3-hydroxy-2-oxo-1-(2-oxo-1,2,3,4-tetrahydroquinolin-6-yl)-pyrrolidine-3-carboxamide] was run?
**A.** 6.00 to 8.00

**Q.** With `O=C(NCc1cc(F)cc(Cl)c1)C1(O)CCN(CCc2ccc(F)cc2F)C1=O` (stereo not drawn) [A237, N-(3-Chloro-5-fluorobenzyl)-1-[2-(2,4-Difluorophenyl)ethyl]-3-hydroxy-2-oxopyrrolidine-3-carboxamide] as the compound, how does the pIC50 read?
**A.** 5.00 to 6.00

— US10093623B2, “Cyclic amides as MetAP-2 inhibitors” (MERCK PATENT GmbH, priority 2012, dated 2018)
